Assay results published in article PMC10950204 (Journal of medicinal chemistry, 2024).
Like-named read-outs stand apart in the source and are kept apart here.

Tests used:
[1] = test system: Synchronized Dd2 culture; test: Stage specific assay, YOYO-1 flow cytometry and microscopy; format: cell-based, P. falciparum
[2] = test system: P. falciparum strains 3D7, IPC 5188, IPC 5202, IPC 6261; test: Piperaquine survival assay; conditions: 10 × EC50 for 48 h, regardless of strain
[3] = test system: panel of 468 kinases (403 nonmutant kinases); test: KINOMEscan Profiling Service, binding at 1 μM; design: species or system human; conditions: screened at 1 μM
[4] = test system: P. falciparum strains 3D7, IPC 5188, IPC 5202, IPC 6261; test: EC50 determination in artemisinin and piperaquine resistant isolates; conditions: all strains, Figure 4C
[5] = test system: P. falciparum Dd2-B2; test: Minimum inoculum of resistance; format: cell-based; conditions: 3 × EC10, monitored 50 days
[6] = In vitro metabolic stability in mouse liver microsomes; format: in vitro ADME
[7] = test system: Caco-2 cells; test: Caco-2 permeability; format: in vitro ADME; conditions: Table S1, Caco-2
[8] = test system: P. falciparum strains 3D7, IPC 5188, IPC 5202, IPC 6261; test: Ring stage survival assay; conditions: 10 × EC50 for 6 h, survival at 72 h, all strains
[9] = test system: asynchronous Dd2 cultures; test: Rate of killing assay, flow cytometry-based; conditions: 10 × EC50 for as little as 12 h, washed, monitored 4 days
[10] = Kinetic solubility, miniaturized shake-flask method; format: physicochemical; conditions: Table S1, 1× PBS pH 7.4
[11] = test system: P. falciparum lines AcAS A597 V, CARL I1139K, PI4K S1320L; test: Cross resistance evaluation, SYBR Green I assay; format: cell-based; conditions: PI4K mutant lines
[12] = test system: P. falciparum Dd2; test: SYBR Green I-based proliferation assay, asynchronous blood stage cultures; conditions: compared to compound 5, Dd2
[13] = target: human EphA2 (Homo sapiens, UniProt P29317); test: SelectScreen kinase profiling, in vitro FRET-based assay; format: biochemical; conditions: compared to compound 5
Sequence of human EphA2 (P29317 24-976): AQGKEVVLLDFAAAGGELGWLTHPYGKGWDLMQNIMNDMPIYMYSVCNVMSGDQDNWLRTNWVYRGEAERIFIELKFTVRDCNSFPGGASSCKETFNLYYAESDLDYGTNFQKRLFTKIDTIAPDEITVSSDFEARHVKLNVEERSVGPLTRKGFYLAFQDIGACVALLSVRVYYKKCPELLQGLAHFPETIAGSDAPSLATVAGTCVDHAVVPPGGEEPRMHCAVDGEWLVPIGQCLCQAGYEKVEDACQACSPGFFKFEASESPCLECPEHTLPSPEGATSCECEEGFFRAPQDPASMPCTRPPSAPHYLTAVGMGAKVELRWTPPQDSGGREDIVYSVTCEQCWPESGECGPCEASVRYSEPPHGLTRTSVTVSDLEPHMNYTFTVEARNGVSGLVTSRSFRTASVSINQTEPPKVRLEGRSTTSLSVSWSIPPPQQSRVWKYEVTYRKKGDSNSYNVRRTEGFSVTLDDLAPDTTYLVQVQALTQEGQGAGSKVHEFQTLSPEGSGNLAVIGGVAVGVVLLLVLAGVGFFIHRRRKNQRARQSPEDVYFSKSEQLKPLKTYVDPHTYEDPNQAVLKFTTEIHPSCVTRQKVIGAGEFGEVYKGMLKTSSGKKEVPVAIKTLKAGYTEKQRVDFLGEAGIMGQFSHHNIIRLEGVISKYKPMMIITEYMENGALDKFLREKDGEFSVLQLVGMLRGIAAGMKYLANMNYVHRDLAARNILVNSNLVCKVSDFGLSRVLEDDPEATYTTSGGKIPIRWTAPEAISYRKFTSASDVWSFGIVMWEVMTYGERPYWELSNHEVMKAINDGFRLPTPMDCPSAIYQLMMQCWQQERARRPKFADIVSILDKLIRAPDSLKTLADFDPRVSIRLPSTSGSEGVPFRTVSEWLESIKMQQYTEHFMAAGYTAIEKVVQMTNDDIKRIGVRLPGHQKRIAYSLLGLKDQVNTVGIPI

[14] = test system: P. falciparum 3D7 blood-stage parasites; test: Parasite reduction ratio; conditions: 10 × EC50, ring stage
[15] = test system: P. falciparum Dd2; test: SYBR Green I-based proliferation assay, ring stage parasites; conditions: for fold loss of antiplasmodial potency: relative to compound 1; for further decrease in the potency: on removing the nitrogen from pyridine / thiophenylpyridine
[16] = cited from earlier work
[17] = test system: ring stage; conditions: read-out: ring stage EC50; cited from earlier work
[18] = test system: HepG2; test: MTS-based cytotoxicity assay; format: cell-based, human
[19] = test system: MCF7; test: MTS-based cytotoxicity assay; format: cell-based, human
[20] = test system: P. falciparum 3D7; test: SYBR Green I-based proliferation assay, ring stage parasites; conditions: read-out: Antiplasmodial Activity 3D7 EC50, 72 h

CCN1CCN(Cc2ccc(NC(=O)c3cc(Cl)cc(NC(=O)c4cncc(-c5cccs5)c4)c3)cc2C(F)(F)F)CC1 [Compound 1, N-(3-Chloro-5-((4-((4-ethylpiperazin-1-yl)methyl)-3-(trifluoromethyl)phenyl)carbamoyl)phenyl)-5-(thiophen-2-yl)nicotinamide]
stage specific effect ([1]; 5 × EC50 added at 6 HPI): parasites seemed to remain stunted in the ring stage | stage specific effect ([1]; 5 × EC50 added at 42 HPI): the effect was much less pronounced | stage specific effect ([1]; 5 × EC50 applied at both 18 and 30 HPI): there was a delayed shift, and parasites were clearly malformed | survival in piperaquine survival assay [2]: did not survive the 48 h treatment | S (10) selectivity score [3]: 0.035 | EC50 values [4]: low nanomolar range | parasite recovery under continuous treatment [5]: failed to recover within 50 days | microsomal stability and clearance [6]: suitable microsomal stability and low clearance | cell permeability [7]: poor | ring stage survival [8]: notably higher than that of the DHA-treated cultures | parasite recovery after treatment [9]: failed to recover within 4 days | solubility [10]: poor | cross-resistance, EC50 among resistant lines [11]: no difference | fold increase in antiplasmodial activity [12]: over 48 fold | fold reduction in human EphA2 activity [13]: ~900 fold | 99.9% parasite clearance time (PCT) [14]: less than 32 h | lag phase [14]: no lag phase detected

CCN1CCN(Cc2ccc(NC(=O)c3cc(Br)cc(NC(=O)c4cncc(-c5cccs5)c4)c3)cc2C(F)(F)F)CC1 [Compound 32, N-(3-Bromo-5-((4-((4-ethylpiperazin-1-yl)methyl)-3-(trifluoromethyl)phenyl)carbamoyl)phenyl)-5-(thiophen-2-yl)nicotinamide]
microsomal stability and clearance [6]: suitable microsomal stability and low clearance

CCN1CCN(Cc2ccc(NC(=O)c3cc(Cl)cc(NCc4cncc(-c5cccs5)c4)c3)cc2C(F)(F)F)CC1 [Compound 18, 3-Chloro-N-(4-((4-ethylpiperazin-1-yl)methyl)-3-(trifluoromethyl)phenyl)-5-(((5-(thiophen-2-yl)pyridin-3-yl)-methyl)amino)benzamide]
fold loss of antiplasmodial potency [15]: 6 fold

CCN1CCN(Cc2ccc(NC(=O)c3cc(Cl)cc(Nc4cncc(-c5cccs5)c4)c3)cc2C(F)(F)F)CC1 [Compound 17, 3-Chloro-N-(4-((4-ethylpiperazin-1-yl)methyl)-3-(trifluoromethyl)phenyl)-5-((5-(thiophen-2-yl)pyridin-3-yl)-amino)benzamide]
fold loss of antiplasmodial potency [15]: 6 fold

CC1(C)c2nc(-c3ccc(F)cc3)c(Nc3ccc(Cl)cc3)n2CCN1C(=O)CN [GNF179]
half-life [16]: 8.9 h

CCN1CCN(Cc2ccc(NC(=O)c3cc(Cl)cc(NC(=O)c4cccnc4)c3)cc2C(F)(F)F)CC1 [Compound 6, N-(3-Chloro-5-((4-((4-ethylpiperazin-1-yl)methyl)-3-(trifluoromethyl)phenyl)carbamoyl)phenyl)nicotinamide]
microsomal stability and clearance [6]: metabolized rapidly | fold loss of antiplasmodial potency [15]: 3 fold

CCN1CCN(Cc2ccc(NC(=O)c3cc(NC(=O)c4cncc(-c5cccs5)c4)cc(C(F)(F)F)c3)cc2C(F)(F)F)CC1 [Compound 33, N-(3-((4-((4-Ethylpiperazin-1-yl)methyl)-3-(trifluoromethyl)phenyl)carbamoyl)-5-(trifluoromethyl)-phenyl)-5-(thiophen-2-yl)nicotinamide]
microsomal stability and clearance [6]: suitable microsomal stability and low clearance

Cc1cn(-c2cc(NC(=O)c3ccc(C)c(Nc4nccc(-c5cccnc5)n4)c3)cc(C(F)(F)F)c2)cn1 [nilotinib]
EC50 [17]: < 1000 nM

3-Amino-N-(4-((4-ethylpiperazin-1-yl)methyl)-3-(trifluoromethyl)phenyl)-5-methylbenzamide [Compound 28]
EC50 [18]: 3.2 ± 0.238 µM | Selectivity Index (SI) HepG2 ([18]; HepG2 EC50/P. falciparum Dd2 EC50): 8.6 | EC50 [19]: 5.22 ± 0.517 µM | Selectivity Index (SI) MCF7 ([19]; MCF7 EC50/P. falciparum Dd2 EC50): 14 | Resistance Index (RI) ([15]; P. falciparum Dd2 EC50/P. falciparum 3D7 EC50): 1.6 | EC50 ([15]; read-out: Antiplasmodial Activity Dd2 EC50, ring stage parasites, 72 h): 372 ± 37 nM | fold loss of antiplasmodial potency [15]: 6 fold | EC50 [20]: 235 ± 34 nM

CCN1CCN(Cc2ccc(NC(=O)c3cncc(NC(=O)c4cncc(-c5cccs5)c4)c3)cc2C(F)(F)F)CC1 [Compound 30, N-(4-((4-Ethylpiperazin-1-yl)methyl)-3-(trifluoromethyl)-phenyl)-5-(5-(thiophen-2-yl)nicotinamido)nicotinamide]
microsomal stability and clearance [6]: metabolized rapidly | improvement in both potency and selectivity ([15]; compound 30 relative to compound 29): more than 7 fold

CCN1CCN(Cc2ccc(NC(=O)c3cc(Cl)cc(NC(=O)c4cncc(-c5cccs5)c4)c3)cc2)CC1 [Compound 22, N-(3-Chloro-5-((4-((4-ethylpiperazin-1-yl)methyl)phenyl)-carbamoyl)phenyl)-5-(thiophen-2-yl)nicotinamide]
microsomal stability and clearance [6]: suitable microsomal stability and low clearance

O=C(Nc1ccnc(N2CCOCC2)c1)c1cc(Cl)cc(NC(=O)c2cncc(-c3cccs3)c2)c1 [Compound 23, N-(3-Chloro-5-((2-morpholinopyridin-4-yl)carbamoyl)-phenyl)-5-(thiophen-2-yl)nicotinamide]
fold loss of antiplasmodial potency [15]: 13 fold

CCN1CCN(Cc2ccc(NC(=O)c3cc(Cl)cc(NC(=O)c4ccccc4)c3)cc2C(F)(F)F)CC1 [Compound 8, 3-Benzamido-5-chloro-N-(4-((4-ethylpiperazin-1-yl)-methyl)-3-(trifluoromethyl)phenyl)benzamide]
further decrease in the potency [15]: 4- to 5 fold

CCN1CCN(Cc2ccc(NC(=O)c3cc(Cl)cc(NC(=O)c4cccc(-c5cccs5)c4)c3)cc2C(F)(F)F)CC1 [Compound 9, 3-Chloro-N-(4-((4-ethylpiperazin-1-yl)methyl)-3-(trifluoromethyl)phenyl)-5-(3-(thiophen-2-yl)benzamido)-benzamide]
further decrease in the potency [15]: 4- to 5 fold

CCN1CCN(Cc2ccc(NC(=O)c3cc(NC(=O)c4cncc(-c5cccs5)c4)ccc3F)cc2C(F)(F)F)CC1 [Compound 26, N-(3-((4-((4-Ethylpiperazin-1-yl)methyl)-3-(trifluoromethyl)phenyl)carbamoyl)-4-fluorophenyl)-5-(thiophen-2-yl)nicotinamide]
EC50 ([15]; Plasmodium falciparum, DD2, 72 h, read-out: Antiplasmodial Activity Dd2 EC50 (nM), ring stage parasites, 72 h): 867 nM

CCN1CCN(Cc2ccc(NC(=O)c3cc(Cl)cc(NC(=O)c4cncc(-c5ccc(C#N)cc5)c4)c3)cc2C(F)(F)F)CC1 [Compound 16, N-(3-Chloro-5-((4-((4-ethylpiperazin-1-yl)methyl)-3-(trifluoromethyl)phenyl)carbamoyl)phenyl)-5-(4-cyanophenyl)nicotinamide]
survival in piperaquine survival assay [2]: did not survive the 48 h treatment | EC50 values [4]: low nanomolar range | ring stage survival [8]: notably higher than that of the DHA-treated cultures | 99.9% parasite clearance time (PCT) [14]: less than 32 h | lag phase [14]: no lag phase detected
